In PMC8745263 (International Journal of Molecular Sciences, 2021):
Entries after “also recorded” stand apart in the source; their conditions may differ. Like-named read-outs stand apart in the source and are kept apart here. Values belong to the molecule of their own block, whether it stands above or below them.

Legend:
[1] = tested on: truncated form of APEH; settings: cited from earlier work
[2] = target: T1, APEH (partially purified from human red blood cells) (Homo sapiens, UniProt P13798); test: APEH enzyme inhibition assay with substrate Ac-Met-AMC; format: biochemical; settings: inhibitor 62 µM, APEH sample 0.7 μg, pre-incubated 30 min at 37 °C, then Ac-Met-AMC added; data not shown
T1 construct: incubated with APEH partially purified from human blood cells; from tissue; host or cells: human red blood cells (erythrocyte hemolysate from donors' blood)
T1 sequence (P13798 1-732): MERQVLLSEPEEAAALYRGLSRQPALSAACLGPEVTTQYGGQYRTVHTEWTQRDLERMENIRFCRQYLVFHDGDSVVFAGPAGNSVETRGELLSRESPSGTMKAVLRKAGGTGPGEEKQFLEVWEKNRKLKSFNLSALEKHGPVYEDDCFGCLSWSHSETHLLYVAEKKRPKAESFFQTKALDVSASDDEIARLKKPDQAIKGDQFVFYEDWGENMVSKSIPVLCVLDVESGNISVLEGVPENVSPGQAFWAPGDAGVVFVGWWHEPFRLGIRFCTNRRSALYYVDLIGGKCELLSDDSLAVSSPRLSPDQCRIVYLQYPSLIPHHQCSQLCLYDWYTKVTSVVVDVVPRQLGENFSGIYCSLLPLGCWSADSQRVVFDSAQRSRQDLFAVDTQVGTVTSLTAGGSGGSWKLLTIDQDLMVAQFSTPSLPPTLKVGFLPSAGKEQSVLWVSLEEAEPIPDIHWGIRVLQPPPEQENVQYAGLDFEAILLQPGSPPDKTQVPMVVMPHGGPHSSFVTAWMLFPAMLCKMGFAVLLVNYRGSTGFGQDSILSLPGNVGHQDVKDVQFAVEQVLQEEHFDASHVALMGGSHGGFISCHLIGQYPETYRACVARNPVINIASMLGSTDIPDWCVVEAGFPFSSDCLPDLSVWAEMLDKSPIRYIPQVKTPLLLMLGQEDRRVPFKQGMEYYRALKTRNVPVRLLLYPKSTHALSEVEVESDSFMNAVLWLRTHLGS
Method: Human APEH was obtained as a partially purified product from the red blood cells by a combination of anion exchange and gel filtration chromatography as described. The purification procedure was monitored by SDS-PAGE analysis of active pooled fractions (Supplementary Figure S3). Specifically, each peak fraction eluted from the gel filtration column was assayed with the specific APEH substrate Ac-Met-AMC and analyzed by Western blotting to assess the identity of the enzyme, using the commercial APEH from porcine liver (APEHpl) as control (Supplementary Figure S4A,B). The molecular mass determined by SDS-PAGE of the partially purified protein was 75 kDa, in agreement with that predicted on the basis of the amino acid sequence. Moreover, gel filtration chromatography on Superdex 200 column allowed estimating a molecular mass for the native APEH of […] as calculated by the calibration curve (Supplementary Figure S4A), confirming that the enzyme is a homo-tetramer composed of four 75 kDa subunits, as already reported.
Blood samples were taken from donors using syringes with heparin. […] Enzyme purification was monitored using Ac-Met-7-amino-4-methylcoumarin (AMC) as substrate. Active fractions were analyzed by SDS-PAGE (12%) in order to evaluate the enrichment of the protein during the various purification steps. […]

[3] = tested on: APEH; settings: cited from earlier work
[4] = tested on: APEH; test: APEH partially purified from human blood cells (0.7 μg, 24.000 total units) in Tris-HCl 25 mM pH 7.5; settings: 37 °C, up to 48 h

Molecule: GIVEQC(ox)C(ox)ASVC(ox)SLYQLENYC(ox)N
cleaved bond [1]: A-S and Y-Q

inhibition of APEH activity [2]: totally inhibited
Molecule: CC(C)CC(O)(CC(C)C)c1cnn(C(=O)N2CCCC2)n1 [AA74-1]

Molecule: …^205FGERALKAWSVARL ↓ SQKFPKAEF^227… …^397LGEYGFQNALIVRY ↓ TRKVPQVST^419… …^493DETYVPKAFDEKLF ↓ TFHADICTL^515…
cleaved bond [3]: L-S and Y-T and F-T

Molecule: Ac-EYM(ox)FM(ox)QKYPHTHLVQQA-NH2
cleaved bond [4]: H59-L60, major; also recorded: Q62-Q; also recorded: L60-V

Molecule: Ac-EYMFMQKYPHTHLVQQA-NH2
not cleaved [4]: No cleavage was observed; N.D. (not degraded) after 48 h
